Read-outs that look alike come from different tables or passages of the source.
Experiments:
[1] = target: T1, human recombinant adrenergic α1D receptor (Homo sapiens, UniProt P25100); test: Radioligand binding, adrenergic α1D ([3H]Prazosin)
T1 construct: expressed in transfected cells; host or cells: HEK-293
T1 sequence (P25100 1-572): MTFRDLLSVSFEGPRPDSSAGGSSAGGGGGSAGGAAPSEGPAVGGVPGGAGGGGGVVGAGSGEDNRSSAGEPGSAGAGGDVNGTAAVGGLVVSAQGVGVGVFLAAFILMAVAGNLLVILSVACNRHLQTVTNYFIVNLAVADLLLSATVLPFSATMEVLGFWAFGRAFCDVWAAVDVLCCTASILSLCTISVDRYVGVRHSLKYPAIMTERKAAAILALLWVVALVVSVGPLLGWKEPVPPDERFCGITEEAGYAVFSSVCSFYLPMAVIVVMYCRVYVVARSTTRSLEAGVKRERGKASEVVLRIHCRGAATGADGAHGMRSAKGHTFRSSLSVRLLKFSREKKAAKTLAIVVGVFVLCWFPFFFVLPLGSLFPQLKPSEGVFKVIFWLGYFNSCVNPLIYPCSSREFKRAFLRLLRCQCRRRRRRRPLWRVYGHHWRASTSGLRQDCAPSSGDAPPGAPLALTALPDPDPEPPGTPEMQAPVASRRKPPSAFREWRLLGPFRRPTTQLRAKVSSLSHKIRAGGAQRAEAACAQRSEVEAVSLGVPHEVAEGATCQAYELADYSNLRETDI
Procedure: Compounds were incubated with 0.6 nM [3H]Prazosin for 60 min at 25° C. Non-specific binding was estimated in the presence of 10 μM phentolamine. Receptor proteins were filtered and washed, the filters were then counted to determine [3H]Prazosin specifically bound. […] Biochemical assay results are presented as the percent inhibition of specific binding in Table B1.

[2] = target: T2, human recombinant adrenergic α2A receptor (Homo sapiens, UniProt P08913); test: Radioligand binding, adrenergic α2A ([3H]MK-912)
T2 construct: expressed in transfected cells; host or cells: insect Sf9 cells
T2 sequence (P08913 1-465): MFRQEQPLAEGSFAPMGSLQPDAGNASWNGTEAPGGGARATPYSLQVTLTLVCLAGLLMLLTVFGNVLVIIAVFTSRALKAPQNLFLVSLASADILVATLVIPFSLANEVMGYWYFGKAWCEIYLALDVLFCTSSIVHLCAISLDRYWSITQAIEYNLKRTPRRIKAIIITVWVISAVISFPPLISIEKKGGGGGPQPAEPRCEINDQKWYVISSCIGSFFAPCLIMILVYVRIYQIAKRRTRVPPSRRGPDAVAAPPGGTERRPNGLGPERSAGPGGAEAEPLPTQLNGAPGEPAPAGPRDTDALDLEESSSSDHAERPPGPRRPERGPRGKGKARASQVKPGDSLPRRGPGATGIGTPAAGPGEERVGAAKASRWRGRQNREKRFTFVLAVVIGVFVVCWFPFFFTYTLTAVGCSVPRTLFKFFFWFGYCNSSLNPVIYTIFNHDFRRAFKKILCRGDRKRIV
Outline: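 Displacement of 1 nM [3H]MK-912 from receptor produced in insect Sf9 cells was measured after 60 min at 25 °C. Readout: percent inhibition of specific binding.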

[3] = target: T3, human recombinant adrenergic α2B receptor (Homo sapiens, UniProt P18089); test: Radioligand binding, adrenergic α2B ([3H]Rauwolscine); conditions: for Ki: read-out: Ki α2B
T3 construct: expressed in transfected cells; host or cells: CHO-K1
T3 sequence (P18089 1-450): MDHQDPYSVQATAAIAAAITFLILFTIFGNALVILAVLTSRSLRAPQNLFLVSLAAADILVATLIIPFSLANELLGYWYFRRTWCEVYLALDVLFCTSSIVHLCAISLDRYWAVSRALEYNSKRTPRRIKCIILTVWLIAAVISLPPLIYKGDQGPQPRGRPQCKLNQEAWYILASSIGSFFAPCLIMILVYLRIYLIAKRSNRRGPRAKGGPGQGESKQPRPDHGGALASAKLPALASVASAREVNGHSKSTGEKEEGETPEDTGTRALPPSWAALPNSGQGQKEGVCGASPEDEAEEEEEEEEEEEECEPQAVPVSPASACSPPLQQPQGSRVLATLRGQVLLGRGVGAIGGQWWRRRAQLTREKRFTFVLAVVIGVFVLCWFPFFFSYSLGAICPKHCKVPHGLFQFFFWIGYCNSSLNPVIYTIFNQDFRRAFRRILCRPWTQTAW
Outline: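 Receptor expressed in CHO-K1 cells, assayed in 50 mM Tris-HCl pH 7.4 with 12.5 mM MgCl2, 1 mM EDTA and 0.2% BSA. Compounds were incubated with 2.5 nM [3H]Rauwolscine for 60 min at 25° C; 10 μM Prazosin defined non-specific binding. Filter counting gave percent inhibition of specific binding.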

[4] = target: T4, rat adrenergic α1B receptor (Rattus norvegicus, UniProt P15823); test: Radioligand binding, adrenergic α1B ([3H]Prazosin)
T4 construct: rat adrenergic α1B receptor obtained from Wistar Rat liver; from tissue; host or cells: Wistar rat liver
T4 sequence (P15823 1-515): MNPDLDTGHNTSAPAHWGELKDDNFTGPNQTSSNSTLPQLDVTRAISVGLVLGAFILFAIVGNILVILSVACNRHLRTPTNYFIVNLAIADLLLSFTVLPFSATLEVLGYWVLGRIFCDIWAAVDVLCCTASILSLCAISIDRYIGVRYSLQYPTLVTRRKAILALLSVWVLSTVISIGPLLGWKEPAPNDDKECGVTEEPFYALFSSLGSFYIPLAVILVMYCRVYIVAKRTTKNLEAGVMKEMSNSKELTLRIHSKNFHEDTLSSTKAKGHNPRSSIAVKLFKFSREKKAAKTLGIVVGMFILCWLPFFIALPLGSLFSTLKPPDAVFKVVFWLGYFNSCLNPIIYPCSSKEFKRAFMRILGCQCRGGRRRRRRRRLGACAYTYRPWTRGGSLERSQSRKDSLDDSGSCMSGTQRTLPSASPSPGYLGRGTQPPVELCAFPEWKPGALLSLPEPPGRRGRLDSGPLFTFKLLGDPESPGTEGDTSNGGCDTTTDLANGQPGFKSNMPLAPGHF
Outline: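 Rat α1B receptor from Wistar rat liver was incubated with 0.25 nM [3H]prazosin for 60 min at 25 °C in 50 mM Tris-HCl, pH 7.4, 0.5 mM EDTA. Non-specific binding was defined with 10 μM phentolamine. Bound radioligand was measured by filtration and counting, reported as percent inhibition of specific binding.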

[5] = 0.1 μM compound, read-out: Percentage inhibition of ligand binding, Adrenergic α1D
[6] = 0.1 μM compound, read-out: Percentage inhibition of ligand binding, Adrenergic α2A
[7] = 0.1 μM compound, read-out: Percentage inhibition of ligand binding, Adrenergic α2B
[8] = 0.1 μM compound, read-out: Percentage inhibition of ligand binding, Adrenergic α1B
[9] = read-out: Percentage inhibition of ligand binding, Adrenergic α1D (0.1 μM), compound at 0.1 μM, [3H]Prazosin, repeat datapoints each shown
[10] = read-out: Percentage inhibition of ligand binding, Adrenergic α2A (0.1 μM), compound at 0.1 μM, [3H]MK-912, repeat datapoints each shown
[11] = read-out: Percentage inhibition of ligand binding, Adrenergic α2B (0.1 μM), compound at 0.1 μM, [3H]Rauwolscine, repeat datapoints each shown
[12] = read-out: Percentage inhibition of ligand binding, Adrenergic α1B (0.1 μM), compound at 0.1 μM, [3H]Prazosin, repeat datapoints each shown
[13] = compound at 0.1 μM, [3H]Prazosin, repeat assays, each datapoint shown, read-out: Percentage inhibition of ligand binding, Adrenergic α1D
[14] = compound at 0.1 μM, [3H]MK-912, repeat assays, each datapoint shown, read-out: Percentage inhibition of ligand binding, Adrenergic α2A
[15] = compound at 0.1 μM, [3H]Rauwolscine, repeat assays, each datapoint shown, read-out: Percentage inhibition of ligand binding, Adrenergic α2B
[16] = compound at 0.1 μM, [3H]Prazosin, repeat assays, each datapoint shown, read-out: Percentage inhibition of ligand binding, Adrenergic α1B

Row | inhibition at 0.1 µM [1, 5] [%] | inhibition at 0.1 µM [2, 6] [%] | inhibition at 0.1 µM [3, 7] [%] | inhibition at 0.1 µM [4, 8] [%] | inhibition at 0.1 µM [1, 9] [%] | inhibition at 0.1 µM [2, 10] [%] | inhibition at 0.1 µM [3, 11] [%] | inhibition at 0.1 µM [4, 12] [%] | SMILES | other results
1 |  |  |  |  | 28 | 3 | 45 | 58 | Cc1cnc2c(c1)c1c(n2CCc2ccc(C)nc2)CC2CCCN2C1 (stereo not shown) [II-235] | 
2 |  |  |  |  | 15 | -3 | 56 | 2 | Cc1ccc(CCn2c3c(c4cccnc42)C2CCCN2CC3)cn1 (stereo not shown) [IV-4] | 

Continued, compound first:

Row | SMILES | inhibition at 0.1 µM [1, 5] [%] | inhibition at 0.1 µM [2, 6] [%] | inhibition at 0.1 µM [3, 7] [%] | inhibition at 0.1 µM [4, 8] [%] | inhibition at 0.1 µM [1, 9] [%] | inhibition at 0.1 µM [2, 10] [%] | inhibition at 0.1 µM [3, 11] [%] | inhibition at 0.1 µM [4, 12] [%] | other results
3 | Cc1ccc(CCn2c3c(c4c(C)ccc(C)c42)CN(C)CC3)cn1 [II-18] | -9 | 14 | -15 | -7 |  |  |  |  | 
4 | Cc1cc(Br)c2c(c1)c1c(n2CCc2ccc(C)nc2)CCN(C)C1 [II-39] | 13 | 27 | -14 | 16 |  |  |  |  | 
5 | CN1CCc2c(n(CC(O)c3ccccc3F)c3ccc(Cl)cc23)C1 (stereo not shown) [II-48] | 8 | 26 | 0 | 27 |  |  |  |  | 
6 | Cc1ccc(C(C)(O)Cn2c3c(c4cc(Cl)ccc42)CN(C)CC3)cc1 (stereo not shown) [II-56] | 11 | 31 | 78 | 54 |  |  |  |  | 
7 | CCc1ccc(/C(C)=C/n2c3c(c4cc(C)ccc42)CN(C)CC3)cn1 [II-77] | 66 | 43 | 108 | 54 |  |  |  |  | 
8 | Cc1ccc2c(c1)c1c(n2C2=C(c3ccc(C)nc3)CCC2)CCN(C)C1 [II-82, 2,8-dimethyl-5-(2-(6-methylpyridin-3-yl)cyclopent-1-enyl)-2,3,4,5-tetrahydro-1H-pyrido[4,3-b]indole] | 23 | 45 | 48 | 13 |  |  |  |  | inhibition at 0.03 µM ([3]; 0.03 μM compound, read-out: Percentage inhibition of ligand binding, Adrenergic α2B): 35%; Percentage inhibition of ligand binding, Adrenergic α2B ([3]; 0.1 μM compound, 0.1 µM): 53%; Ki [3]: 0.0268 µM
9 | C/C(=C\n1c2c(c3cc(C)ccc31)CN(C)CC2)c1ccc(F)nc1 [II-96] | 31 | 49 | 95 | 39 |  |  |  |  | 
10 | CN1CCc2c(c3cccnc3n2CCc2ccc(C(F)(F)F)nc2)C1 [II-103, 6-methyl-9-(2-(6-(trifluoromethyl)pyridin-3-yl)ethyl)-6,7,8,9-tetrahydro-5H-pyrrolo[2,3-b:4,5-c′]dipyridine] | 8 | -5 | 35 | 1 |  |  |  |  | 
11 | Cc1cnc2c(c1)c1c(n2CCc2ccc(C(F)(F)F)nc2)CCN(C)C1 [II-119, 3,6-dimethyl-9-(2-(6-(trifluoromethyl)pyridin-3-yl)ethyl)-6,7,8,9-tetrahydro-5H-pyrrolo[2,3-b:4,5-c′]dipyridine] |  |  |  |  | 53 | -4 | 27 | 23 | 
12 | CCC1c2c(c3cc(Cl)ccc3n2CC(C)(O)c2ccc(F)cc2)CCN1C (stereo not shown) [II-161] |  |  |  |  | 2 | 7 | 13 | 7 | 
13 | COc1ccc(C(C)(O)Cn2c3c(c4cc(C)ccc42)CN(C)CC3)cc1F (stereo not shown) [II-163] |  |  |  |  | 28 | 41 | 86 | 66 | 
14 | COc1ccc(C(C)(O)Cn2c3c(c4cc(Cl)ccc42)C2CCC(C3)N2C)cc1F (stereo not shown) [II-164] |  |  |  |  | 0 | 15 | 40 | 12 | 
15 | CN1CCc2c(c3ccccc3n2CC(C)(O)c2ccncc2)C1 (stereo not shown) [II-171] |  |  |  |  | 55 | 96 | 94 | 95 | 
16 | Cc1ccc(CCn2c3c(c4cccnc42)CN2CCCC2C3)cn1 (stereo not shown) [II-234] |  |  |  |  | -1 | 7 | 33 | -8 | 
17 | CN1CCc2c(c3cc(Cl)ccc3n2CC(C)(O)c2ccncc2)C1 (stereo not shown) [compound 1] |  |  |  |  |  |  |  |  | inhibition at 0.1 µM [1, 13]: 16%; inhibition at 0.1 µM [2, 14]: 6%; inhibition at 0.1 µM [3, 15]: 74%; inhibition at 0.1 µM [4, 16]: 32%
18 | Cc1ccc2c(c1)c1c(n2CC(C)(O)c2ccc(C)nc2)CCN(C)C1 (stereo not shown) [compound 29] |  |  |  |  |  |  |  |  | inhibition at 0.1 µM [1, 13]: 1%; inhibition at 0.1 µM [2, 14]: 10%; inhibition at 0.1 µM [3, 15]: 100%; inhibition at 0.1 µM [4, 16]: 24%
19 | CN1CCc2c(c3cccc(Cl)c3n2CC(C)(O)c2ccncc2)C1 (stereo not shown) [compound 32] |  |  |  |  |  |  |  |  | inhibition at 0.1 µM [1, 13]: 7%; inhibition at 0.1 µM [2, 14]: 28%; inhibition at 0.1 µM [3, 15]: 86%; inhibition at 0.1 µM [4, 16]: 12%
20 | CN1CCc2c(c3cc(Cl)ccc3n2CCc2cccnc2)C1 [compound 60] |  |  |  |  |  |  |  |  | inhibition at 0.1 µM [1, 13]: 35%; inhibition at 0.1 µM [2, 14]: 26%; inhibition at 0.03 µM ([3]; compound at 0.03 μM, [3H]Rauwolscine, repeat assays, each datapoint shown, read-out: Percentage inhibition of ligand binding, Adrenergic α2B): 66%; inhibition at 0.1 µM [3, 15]: 93%; Ki [3]: 0.00584 µM; inhibition at 0.1 µM [4, 16]: 65%

Reference: patent US8791132B2, “Compounds and methods for treatment of hypertension” (Medivation Technologies, Inc., priority 2011, dated 2014)
